From patent US8865763B2, “Methods and compositions for altering cell function” (Alltech, Inc., priority 2005, dated 2014)

Key:
[1] = Hen Brain Se Concentration; type: in vivo, White-Egg-Laying Hens; conditions: hens; diet with 0.3 ppm Se from the source
Procedure: (§1) Compositions and methods of the present invention were utilized to evaluate the effects of various Se sources on the accumulation of brain Se concentrations in hens and their offspring.
(§2) The study was conducted at the Coldstream Research Facility from Jun. 28, 2004 until Nov. 16, 2004. Six dietary treatments were fed to a total of 48 hens (r=8) that were bred on three consecutive days starting on Sep. 16, 2004.
(§3) • Basal (no added Se) • Selenite (0.3 ppm) • Sel Plex (0.3 ppm) • Tepsel (0.3 ppm) • Se 2000 (0.3 ppm) • Selenosource (0.3 ppm)
(§4) Chicks that hatched were divided into two groups. Half of the chicks were killed for brain collection and the remaining chicks were allowed to grow for 14 days on a Se deficient diet, at which time they were terminated for brain collection. Hen brains were analyzed for Se content individually, whereas the chick brains were homogenized and pooled because of small sample size.
(§5) Brain Se concentrations for the hens and chicks are shown in Tables 4 and 5, below, respectively. The Selenosource value represents only one hen brain analyzed and therefore was not included in the statistical analysis.

[2] = Chick Brain Se Concentration at day 14; type: in vivo, chicks (offspring of treated hens); conditions: offspring of hens fed 0.3 ppm Se; chicks 14 days on Se deficient diet; pooled brains
Procedure: as §1, §2, §3, §4, §5

Gst zeta 1 (Gstz1) = assay: Microarray gene expression, mouse cerebral cortex: Gstz1; type: in vivo; conditions: diet 1 ppm Se, vs Se-deficient animals, * significant
From the text: (§6) Animal Care. Male C57BL/6J mice were housed singly and started on the experimental diets described below immediately after weaning (21 days of age). The mice were maintained in the Shared Aging Rodent Facility at the William S. Middleton Memorial Veterans Administration Medical Center (Madison, Wis.). Temperature and humidity were maintained at constant levels. Room light was controlled to provide 12-hr cycles of light and dark.
(§7) Experimental diets were created by Harlan Teklad (Madison, Wis.). Selenium content of the diets was determined by Covance Inc. (Madison, Wis.). Five (5) animals were included in each of the following treatment groups: a diet deficient in selenium (SD); a diet supplemented with selenomethionine (SM, obtained from Sigma, St. Louis, Mo.) such that the final selenium content of the diet was one (1) part per million; a diet supplemented with sodium selenite (SS, Sigma) such that the final concentration of selenium in this diet was one (1) part per million; or a diet supplemented with the yeast selenium SEL-PLEX (SP, Alltech, Lexington, Ky.), such that the final concentration of selenium in this diet was one (1) part per million. SEL-PLEX. […]
(§8) Tissue sample preparation and microarray analysis. […] For intestinal expression studies, the intestine was flushed twice with saline solution and small intestine was measured and divided in three equal segments. […]

Cathepsin B = assay: Microarray gene expression, mouse cerebral cortex: Cathepsin B; type: in vivo; conditions: diet 1 ppm Se, vs Se-deficient mice, * significant
From the text: as §6, §7, §8

[3] = test system: Complement component 1, q subcomponent, gamma polypeptide, C1qg; assay: Microarray gene expression, mouse cerebral cortex: C1qg; type: in vivo; conditions: diet 1 ppm Se, vs selenium deficient, * p<0.01
From the text: as §6, §7, §8

[4] = test system: Glutathione S-transferase, mu1 (Gstm1); assay: Microarray gene expression, mouse intestine: Gstm1; type: in vivo; conditions: diet 1 ppm Se, vs Se-deficient diets, negative = down
From the text: as §6, §7, §8

[5] = test system: Growth arrest and DNA-damage-inducible 45 gamma (Gadd45g); assay: Microarray gene expression, mouse intestine: Gadd45g; type: in vivo; conditions: diet 1 ppm Se, vs selenium deficient, negative = down, listed as SS
From the text: as §6
Experimental diets were created by Harlan Teklad (Madison, Wis.). Selenium content of the diets was determined by Covance Inc. (Madison, Wis.). Five (5) animals were included in each of the following treatment groups: a diet deficient in selenium (SD); a diet supplemented with selenomethionine (SM, obtained from Sigma, St. Louis, Mo.) such that the final selenium content of the diet was one (1) part per million; a diet supplemented with sodium selenite (SS, Sigma) such that the final concentration of selenium in this diet was one (1) part per million; or a diet supplemented with the yeast selenium SEL-PLEX (SP, Alltech, Lexington, Ky.), such that the final concentration of selenium in this diet was one (1) part per million. SEL-PLEX. Mice were provided with water and their respective diet ad libitum for 100 days. Diets were stored at the dark at 4° C. and fresh diet was added to feeder twice weekly.
Tissue sample preparation and microarray analysis. Mice were killed at 100 days of age by cervical dislocation. For intestinal expression studies, the intestine was flushed twice with saline solution and small intestine was measured and divided in three equal segments. A 3-cm region of the middle segment of the small intestine corresponding to the jejunum (˜300 mg of tissue) was cut and rinsed again with physiological saline to completely remove contents, flash frozen in liquid nitrogen and stored at −80° C. For brain (e.g., cerebral cortex) studies, the cerebral cortex was separated from the surrounding brain tissue and was flash frozen in liquid nitrogen and stored at −80° C. […]

[6] = test system: Glutathione S-transferase, theta 2 (Gstt2); assay: Microarray gene expression, mouse intestine: Gstt2; type: in vivo; conditions: diet 1 ppm Se, vs Se-deficient diets, negative = down
From the text: as §6, §7, §8

[7] = test system: Amyloid beta (A4) precursor-like protein (Aplp 1); assay: Microarray gene expression, mouse cerebral cortex: Aplp 1; type: in vivo; conditions: diet 1 ppm Se, vs Se-deficient animals, * P < 0.01
From the text: as §6, §7, §8

SelR (Selenoprotein X1) = assay: Microarray gene expression, mouse intestine: SelR; type: in vivo; conditions: diet 1 ppm Se, vs selenium deficient
From the text: as §6, §7, §8

Glutathione Peroxidase 3 = assay: Microarray gene expression, mouse intestine: Glutathione Peroxidase 3; type: in vivo; conditions: diet 1 ppm Se, vs selenium deficient, all p < 0.01
From the text: as §6, §7, §8

[8] = test system: Cu chaperone for SOD (CCS); assay: Microarray gene expression, mouse intestine: CCS; type: in vivo; conditions: diet 1 ppm Se, vs selenium deficient
From the text: as §6, §7, §8

[9] = test system: Glutathione S-transferase, mu2 (Gstm2); assay: Microarray gene expression, mouse intestine: Gstm2; type: in vivo; conditions: diet 1 ppm Se, vs Se-deficient diets, negative = down
From the text: as §6, §7, §8

Cathepsin O = assay: Microarray gene expression, mouse cerebral cortex: Cathepsin O; type: in vivo; conditions: diet 1 ppm Se, vs Se-deficient mice, * significant
From the text: as §6, §7, §8

Junb = assay: Microarray gene expression, mouse cerebral cortex: Junb; type: in vivo; conditions: diet 1 ppm Se, vs Se-deficient animals, * significant
From the text: as §6, §7, §8

Thioredoxin Reductase 1 = assay: Microarray gene expression, mouse intestine: Thioredoxin Reductase 1; type: in vivo; conditions: diet 1 ppm Se, vs selenium deficient, p <0.01
From the text: as §6, §7, §8

[10] = test system: Glutathione S-transferase, mu3 (Gstm3); assay: Microarray gene expression, mouse intestine: Gstm3; type: in vivo; conditions: diet 1 ppm Se, vs Se-deficient diets, negative = down
From the text: as §6, §7, §8

[11] = test system: Amyloid beta (A4) precursor protein-binding, family A, member 1(Apba1); assay: Microarray gene expression, mouse cerebral cortex: Apba1; type: in vivo; conditions: diet 1 ppm Se, vs Se-deficient animals, * P < 0.01
From the text: as §6, §7, §8

[12] = test system: Glutathione S-transferase, alpha 3 (Gsta3); assay: Microarray gene expression, mouse intestine: Gsta3; type: in vivo; conditions: diet 1 ppm Se, vs Se-deficient diets, negative = down
From the text: as §6, §7, §8

Cathepsin Z = assay: Microarray gene expression, mouse cerebral cortex: Cathepsin Z; type: in vivo; conditions: diet 1 ppm Se, vs Se-deficient mice, * significant
From the text: as §6, §7, §8

[13] = test system: Complement component 1, q subcomponent, alpha polypeptide, C1qa; assay: Microarray gene expression, mouse cerebral cortex: C1qa; type: in vivo; conditions: diet 1 ppm Se, vs selenium deficient, * p<0.01
From the text: as §6, §7, §8

[14] = test system: Gadd45g1p (Growth arrest and DNA-damage inducible 45 gamma interacting protein); assay: Microarray gene expression, mouse cerebral cortex: Gadd45g1p; type: in vivo; conditions: diet 1 ppm Se, vs Se-deficient animals, * significant
From the text: as §6, §7, §8

[15] = test system: Complement component 1, q subcomponent, beta polypeptide, C1qbp; assay: Microarray gene expression, mouse cerebral cortex: C1q beta polypeptide; type: in vivo; conditions: diet 1 ppm Se, vs selenium deficient, * p<0.01
From the text: as §6, §7, §8

Gst pi 1 (Gstp1) = assay: Microarray gene expression, mouse cerebral cortex: Gstp1; type: in vivo; conditions: diet 1 ppm Se, vs Se-deficient animals, * significant
From the text: as §6, §7, §8

Gst mu 7 (Gstm7) = assay: Microarray gene expression, mouse cerebral cortex: Gstm7; type: in vivo; conditions: diet 1 ppm Se, vs Se-deficient animals, * significant
From the text: as §6, §7, §8

Glutathione Peroxidase 1 = assay: Microarray gene expression, mouse intestine: Glutathione Peroxidase 1; type: in vivo; conditions: diet 1 ppm Se, vs selenium deficient, all p < 0.01
From the text: as §6, §7, §8

SOD1 = assay: Microarray gene expression, mouse intestine: SOD1; type: in vivo; conditions: diet 1 ppm Se, vs selenium deficient
From the text: as §6, §7, §8

[16] = test system: Complement component 1, q subcomponent binding protein, C1qbp; assay: Microarray gene expression, mouse cerebral cortex: C1qbp; type: in vivo; conditions: diet 1 ppm Se, vs selenium deficient, * p<0.01
From the text: as §6, §7, §8

[17] = Body weight of mice on selenium diets; type: in vivo, mouse; conditions: diet 1 ppm Se vs selenium deficient diet; FIG. 1
From the text: as §6
Experimental diets were created by Harlan Teklad (Madison, Wis.). Selenium content of the diets was determined by Covance Inc. (Madison, Wis.). […]
Thus, it was an object of the present invention to determine whether compositions and methods of the present invention could alter the expression levels (e.g., mRNA levels) of various genes. One group of genes analyzed were genes classically associated with selenium. As described above, the expression levels of genes were analyzed between mice with and without dietary selenium, or, between mice fed different sources of selenium) (See, e.g., Table 1, below).

Cathepsin D = assay: Microarray gene expression, mouse cerebral cortex: Cathepsin D; type: in vivo; conditions: diet 1 ppm Se, vs Se-deficient mice, * significant
From the text: as §6, §7, §8

Nicastrin = assay: Microarray gene expression, mouse cerebral cortex: Nicastrin; type: in vivo; conditions: diet 1 ppm Se, vs Se-deficient animals, * P < 0.01
From the text: as §6, §7, §8

[18] = test system: Complement component 1, r subcomponent, C1r; assay: Microarray gene expression, mouse cerebral cortex: C1r; type: in vivo; conditions: diet 1 ppm Se, vs selenium deficient, * p<0.01
From the text: as §6, §7, §8

[19] = test system: Type 1 iodothyronine deiodinase; assay: Microarray gene expression, mouse intestine: Type 1 iodothyronine deiodinase; type: in vivo; conditions: diet 1 ppm Se, vs selenium deficient
From the text: as §6, §7, §8

[20] = test system: Amyloid beta (A4) precursor protein-binding, family B, member 1 (Apbb1 or Fe65); assay: Microarray gene expression, mouse cerebral cortex: Apbb1/Fe65; type: in vivo; conditions: diet 1 ppm Se, vs Se-deficient animals, * P < 0.01
From the text: as §6, §7, §8

Gadd45b = assay: Microarray gene expression, mouse cerebral cortex: Gadd45b; type: in vivo; conditions: diet 1 ppm Se, vs Se-deficient animals, * significant
From the text: as §6, §7, §8

Selenoprotein W (SelW) = assay: Microarray gene expression, mouse intestine: SelW; type: in vivo; conditions: diet 1 ppm Se, vs selenium deficient
From the text: as §6, §7, §8

Presenilin 1 = assay: Microarray gene expression, mouse cerebral cortex: Presenilin 1; type: in vivo; conditions: diet 1 ppm Se, vs Se-deficient animals, * P < 0.01
From the text: as §6, §7, §8

O=[Se](O)O [Selenite]
Hen Brain Se Concentration [1]: 850 ppb | Chick Brain Se Concentration at day 14 [2]: 784 ppb

O=[Se](O)O [Sod-sel, sodium selenite]
FC (fold change) expression of Gstz1 (Gst zeta 1 (Gstz1)): −1.3 fold | FC (fold change) expression of Cathepsin B (Cathepsin B): −1.13* fold | FC (fold change) expression of C1qg [3]: −1.07 fold | FC (fold change) expression of Gstm1 [4]: −2.4 fold | FC (fold change) expression of Gadd45g [5]: −2.0 fold | FC (fold change) expression of Gstt2 [6]: −1.3 fold | FC (fold change) expression of Aplp 1 [7]: −1.55* fold | expression of SelR, fold upregulated (SelR (Selenoprotein X1)): 1.3 fold | fold change in expression of Glutathione Peroxidase 3 (Glutathione Peroxidase 3): 3.5 fold | enhancement in expression of the Cu chaperone for SOD (CCS), fold [8]: 1.28 fold | FC (fold change) expression of Gstm2 [9]: −2.1 fold | FC (fold change) expression of Cathepsin O (Cathepsin O): −1.18 fold | FC (fold change) expression of Junb (Junb): −1.59 fold | fold increase in expression of the Thioredoxin Reductase 1 gene (Thioredoxin Reductase 1): 1.7 fold | FC (fold change) expression of Gstm3 [10]: −2.7 fold | FC (fold change) expression of Apba1 [11]: −1.41 fold | FC (fold change) expression of Gsta3 [12]: −2.3 fold | FC (fold change) expression of Cathepsin Z (Cathepsin Z): −1.30* fold | FC (fold change) expression of C1qa [13]: −1.18 fold | FC (fold change) expression of Gadd45g1p in brain [14]: −1.12 fold | FC (fold change) expression of complement component 1, q subcomponent, beta polypeptide [15]: −1.35 fold | FC (fold change) expression of Gstp1 (Gst pi 1 (Gstp1)): 1.02 fold | FC (fold change) expression of Gstm7 (Gst mu 7 (Gstm7)): −1.25* fold | fold change in expression of Glutathione Peroxidase 1 (Glutathione Peroxidase 1): 4.1 fold | enhanced expression of SOD1, fold (SOD1): 1.92 fold | FC (fold change) expression of C1qbp [16]: 1.11 fold | body weights of mice [17]: No significant differences | FC (fold change) expression of Cathepsin D (Cathepsin D): −1.24* fold | FC (fold change) expression of Nicastrin (Nicastrin): −1.67* fold | FC (fold change) expression of C1r [18]: −1.29 fold | fold increase of expression level of Type 1 iodothyronine deiodinase [19]: 2.8 fold | FC (fold change) expression of Apbb1 (Fe65) [20]: −1.32* fold | FC (fold change) expression of Gadd45b in brain (Gadd45b): −1.39* fold | expression of Selenoprotein W (SelW), fold upregulated (Selenoprotein W (SelW)): 5.1 fold | FC (fold change) expression of Presenilin 1 (Presenilin 1): −1.11 fold
